The results in this text go back to US12202832B2, “Heterocyclic compounds having a calcium-sensing receptor antagonistic activity” (TAKEDA PHARMACEUTICAL COMPANY LIMITED, priority 2017, dated 2025).

Each structure is given as a SMILES string.

The first assay deals with T1, human CaSR (Homo sapiens, UniProt P41180).
T1 construct: expressed in transfected cells; host or cells: CHO cells
T1 sequence (P41180 20-1078): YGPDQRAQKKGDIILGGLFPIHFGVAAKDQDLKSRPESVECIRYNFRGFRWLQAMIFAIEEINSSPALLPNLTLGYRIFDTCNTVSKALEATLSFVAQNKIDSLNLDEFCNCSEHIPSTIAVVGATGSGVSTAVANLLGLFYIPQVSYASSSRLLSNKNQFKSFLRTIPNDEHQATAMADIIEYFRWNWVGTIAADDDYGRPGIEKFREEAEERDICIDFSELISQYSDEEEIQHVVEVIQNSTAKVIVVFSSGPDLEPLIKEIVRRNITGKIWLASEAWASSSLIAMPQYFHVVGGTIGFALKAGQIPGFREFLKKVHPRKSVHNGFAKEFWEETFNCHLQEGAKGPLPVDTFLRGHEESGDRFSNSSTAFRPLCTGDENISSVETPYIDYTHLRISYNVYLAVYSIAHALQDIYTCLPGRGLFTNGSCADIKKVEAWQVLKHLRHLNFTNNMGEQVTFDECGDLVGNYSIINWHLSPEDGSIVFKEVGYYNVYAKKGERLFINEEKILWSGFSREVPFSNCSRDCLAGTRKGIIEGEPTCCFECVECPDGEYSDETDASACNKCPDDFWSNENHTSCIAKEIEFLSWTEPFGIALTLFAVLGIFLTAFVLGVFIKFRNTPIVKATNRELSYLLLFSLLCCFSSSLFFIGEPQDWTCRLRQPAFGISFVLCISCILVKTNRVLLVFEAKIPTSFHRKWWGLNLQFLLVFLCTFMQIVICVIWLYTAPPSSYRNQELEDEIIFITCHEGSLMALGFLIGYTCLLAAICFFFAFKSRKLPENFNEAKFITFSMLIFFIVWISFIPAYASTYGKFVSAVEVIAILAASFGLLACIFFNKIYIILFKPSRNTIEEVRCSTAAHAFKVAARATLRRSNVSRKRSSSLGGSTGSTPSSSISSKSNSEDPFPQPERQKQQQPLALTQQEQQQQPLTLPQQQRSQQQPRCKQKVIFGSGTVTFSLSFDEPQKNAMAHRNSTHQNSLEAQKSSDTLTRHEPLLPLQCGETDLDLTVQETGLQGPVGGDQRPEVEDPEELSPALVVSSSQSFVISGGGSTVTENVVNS
In words: Human CaSR antagonist activity (NFAT-Luciferase reporter in CHO cells). Type of assay: cell-based. The conditions noted are these: CHO, CaCl2 final 1.3 mM, 100% = reference antagonist at 10 μM, read-out: Inhibition rate (%) at 3.3 μM. As to the method: CaSR antagonist activity measurement was performed using Bright-Glo Luciferase assay system (Promega Corporation). CHO cells in which human CaSR and NFAT-Luciferase reporter gene were forcibly expressed were suspended in MEM alpha (Wako Pure Chemical Industries, Ltd.) containing 10% dialyzed serum (HyClone). The cells in suspension was seeded in 384-well white plate (Corning) at 10,000/20 μL/well, and cultured in an incubator of 37° C., 5% CO2 for one day. A diluent of Test compound was prepared with assay buffer (MEM alpha containing 10 mM HEPES (Life Technologies) and 10% dialysis serum). The diluent was added to the plate at 5 μL/well and allowed to stand at 37° C. for 10 minutes. Further, a diluent of 7.8 mM CaCl2 prepared with assay buffer (final concentration 1.3 mM) was added at 5 μl/well and allowed to stand in an incubator of 37° C., 5% CO2 for 2 hours. Bright-Glo reagents (Promega Corporation) were added at 10 μL/well, and the obtained mixture was stirred for 5 minutes, and then luminescence intensity was measured using Multi-label reader Envision (PerkinElmer, Inc.). The activity (%) of the test compound was calculated with the definitions in which the luminescence intensity when DMSO is added in place of the test compound is defined as 0% inhibition; and the luminescence intensity when (5R)—N-(1-ethyl-1-(4-ethylphenyl)propyl)-2,7,7-trimethyl-5-phenyl-4,5,6,7-tetrahydropyrazolo[1,5-a] Pyrimidine-3-carboxamide at final concentration of 10 μM is added is defined as 100% inhibition.
With `CCc1ccc([C@@](CC)(NC(=O)c2cnn3c2N[C@@H](c2ccccc2)CC3(C)C)C(=O)N[C@H](C(N)=O)[C@@H](C)O)cc1` [Example 21, (5R)-N-((2R)-1-(((2S,3R)-1-Amino-3-hydroxy-1-oxobutan-2-yl)amino)-2-(4-ethylphenyl)-1-oxobutan-2-yl)-7,7-dimethyl-5-phenyl-4,5,6,7-tetrahydropyrazolo[1,5-a]pyrimidine-3-carboxamide], the inhibition – broadly, the relative decrease from the control value, in per cent – at 3.3 µM worked out at 103%.

For the compound `CCc1ccc(C(CC)(NC(=O)c2cnn3c2N[C@@H](c2ccccc2)CC3(C)C)C(=O)N[C@H](C)C(N)=O)cc1` (stereo partly drawn) [Example 22, (5R)-N-(1-(((2R)-1-Amino-1-oxopropan-2-yl)amino)-2-(4-ethylphenyl)-1-oxobutan-2-yl)-7,7-dimethyl-5-phenyl-4,5,6,7-tetrahydropyrazolo[1,5-a]pyrimidine-3-carboxamide], the inhibition at 3.3 µM was 106%.

Take `CCc1ccc(C(CC)(NC(=O)c2cnn3c2N[C@@H](c2ccccc2)CC3(C)C)C(=O)N[C@@H](CCCCN)C(N)=O)cc1` (stereo partly drawn) [Example 20, (5R)-N-(1-(((2S)-1,6-Diamino-1-oxohexan-2-yl)amino)-2-(4-ethylphenyl)-1-oxobutan-2-yl)-7,7-dimethyl-5-phenyl-4,5,6,7-tetrahydropyrazolo[1,5-a]pyrimidine-3-carboxamide]: the inhibition at 3.3 µM was 101%.

As for `CCc1ccc(C(CC)(NC(=O)c2cnn3c2N[C@@H](c2ccccc2)CC3(C)C)C(=O)N[C@H](C(N)=O)[C@@H](C)CC)cc1` (stereo partly drawn) [Example 10, (5R)-N-(1-(((2S,3S)-1-Amino-3-methyl-1-oxopentan-2-yl)amino)-2-(4-ethylphenyl)-1-oxobutan-2-yl)-7,7-dimethyl-5-phenyl-4,5,6,7-tetrahydropyrazolo[1,5-a]pyrimidine-3-carboxamide], the inhibition at 3.3 µM was 100%.

For the compound `CCc1ccc(C(CC)(NC(=O)c2cnn3c2N[C@@H](c2ccccc2)CC3(C)C)C(=O)NC)cc1` (stereo partly drawn) [Example 29, (5R)-N-(2-(4-Ethylphenyl)-1-(methylamino)-1-oxobutan-2-yl)-7,7-dimethyl-5-phenyl-4,5,6,7-tetrahydropyrazolo[1,5-a]pyrimidine-3-carboxamide], the inhibition at 3.3 µM worked out at 103%.

For `CCc1ccc(C(CC)(NC(=O)c2cnn3c2N[C@@H](c2ccccc2)CC3(C)C)C(=O)N[C@@H](C)C(N)=O)cc1` (stereo partly drawn) [Example 2, (5R)-N-(1-(((2S)-1-Amino-1-oxopropan-2-yl)amino)-2-(4-ethylphenyl)-1-oxobutan-2-yl)-7,7-dimethyl-5-phenyl-4,5,6,7-tetrahydropyrazolo[1,5-a]pyrimidine-3-carboxamide], the inhibition at 3.3 µM amounted to 102%.

Consider `CCc1ccc(C(C)(NC(=O)c2cnn3c2N[C@@H](c2ccccc2)CC3(C)C)C(=O)N[C@@H](CC(C)C)C(N)=O)cc1` (stereo partly drawn) [Example 9, (5R)-N-(1-(((2S)-1-Amino-4-methyl-1-oxopentan-2-yl)amino)-2-(4-ethylphenyl)-1-oxopropan-2-yl)-7,7-dimethyl-5-phenyl-4,5,6,7-tetrahydropyrazolo[1,5-a]pyrimidine-3-carboxamide], for which the inhibition at 3.3 µM came to 98%.

In the case of `CCc1ccc(C(CC)(NC(=O)c2cnn3c2N[C@@H](c2ccccc2)CC3(C)C)C(=O)N[C@@H](CC(C)C)C(N)=O)cc1` (stereo partly drawn) [Example 14, (5R)-N-(1-(((2S)-1-Amino-4-methyl-1-oxopentan-2-yl)amino)-2-(4-ethylphenyl)-1-oxobutan-2-yl)-7,7-dimethyl-5-phenyl-4,5,6,7-tetrahydropyrazolo[1,5-a]pyrimidine-3-carboxamide], the inhibition at 3.3 µM is 98%.

On to `CCc1ccc([C@](CC)(NC(=O)c2c(C)nn3c2N[C@@H](c2ccccc2)CC3(C)C)C(=O)N[C@@H](C)C(N)=O)cc1` [Example 3, (5R)-N-((2S)-1-(((2S)-1-Amino-1-oxopropan-2-yl)amino)-2-(4-ethylphenyl)-1-oxobutan-2-yl)-2,7,7-trimethyl-5-phenyl-4,5,6,7-tetrahydropyrazolo[1,5-a]pyrimidine-3-carboxamide], for which the inhibition at 3.3 µM worked out at 94%.

Take `CCc1ccc(C(CC)(NC(=O)c2cnn3c2N[C@@H](c2ccccc2)CC3(C)C)C(=O)NCC(N)=O)cc1` (stereo partly drawn) [Example 17, (5R)-N-(1-((2-Amino-2-oxoethyl)amino)-2-(4-ethylphenyl)-1-oxobutan-2-yl)-7,7-dimethyl-5-phenyl-4,5,6,7-tetrahydropyrazolo[1,5-a]pyrimidine-3-carboxamide]: the inhibition at 3.3 µM is 104%.

`CCc1ccc(C(CC)(NC(=O)c2cnn3c2N[C@@H](c2ccccc2)CC3(C)C)C(=O)N[C@@H](Cc2ccccc2)C(N)=O)cc1` (stereo partly drawn) [Example 18]: the inhibition at 3.3 µM is 101%.

With `CCc1ccc(C(CC)(NC(=O)c2cnn3c2N[C@@H](c2ccccc2)CC3(C)C)C(=O)N(C)C)cc1` (stereo partly drawn) [Example 32, (5R)-N-(1-(Dimethylamino)-2-(4-ethylphenyl)-1-oxobutan-2-yl)-7,7-dimethyl-5-phenyl-4,5,6,7-tetrahydropyrazolo[1,5-a]pyrimidine-3-carboxamide], the inhibition at 3.3 µM is 102%.

For `CCc1ccc(C(CC)(NC(=O)c2cnn3c2N[C@@H](c2ccccc2)CC3(C)C)C(N)=O)cc1` (stereo partly drawn) [Example 26, (5R)-N-(1-Amino-2-(4-ethylphenyl)-1-oxobutan-2-yl)-7,7-dimethyl-5-phenyl-4,5,6,7-tetrahydropyrazolo[1,5-a]pyrimidine-3-carboxamide], the inhibition at 3.3 µM was 106%.

`CCc1ccc(C(CC)(NC(=O)c2cnn3c2N[C@@H](c2ccccc2)CC3(C)C)C(=O)N[C@@H](CC(N)=O)C(N)=O)cc1` (stereo partly drawn) [Example 24]: the inhibition at 3.3 µM worked out at 102%.

`CCc1ccc(C(CC)(NC(=O)c2cnn3c2N[C@@H](c2ccccc2)CC3(C)C)C(=O)N[C@@H](CO)C(N)=O)cc1` (stereo partly drawn) [Example 23, (5R)-N-(1-(((2S)-1-Amino-3-hydroxy-1-oxopropan-2-yl)amino)-2-(4-ethylphenyl)-1-oxobutan-2-yl)-7,7-dimethyl-5-phenyl-4,5,6,7-tetrahydropyrazolo[1,5-a]pyrimidine-3-carboxamide]: the inhibition at 3.3 µM is 102%.

The same assay, now with this note: CaCl2 final 1.3 mM, 100% = reference antagonist at 10 μM.
On to `CCc1ccc(C(CC)(NC(=O)c2cnn3c2N[C@@H](c2ccccc2)CC3(C)C)C(=O)N(C)C)cc1` (stereo partly drawn) [Example 33, (5R)-N-(1-(Dimethylamino)-2-(4-ethylphenyl)-1-oxobutan-2-yl)-7,7-dimethyl-5-phenyl-4,5,6,7-tetrahydropyrazolo[1,5-a]pyrimidine-3-carboxamide], for which the “Inhibition rate (%) at 3.3 μM” value worked out at 104%.

`CCc1ccc(C(CC)(NC(=O)c2cnn3c2N[C@@H](c2ccccc2)CC3(C)C)C(=O)N[C@@H](CC(C)C)C(N)=O)cc1` (stereo partly drawn) [Example 15, (5R)-N-(1-(((2S)-1-Amino-4-methyl-1-oxopentan-2-yl)amino)-2-(4-ethylphenyl)-1-oxobutan-2-yl)-7,7-dimethyl-5-phenyl-4,5,6,7-tetrahydropyrazolo[1,5-a]pyrimidine-3-carboxamide]: the “Inhibition rate (%) at 3.3 μM” value was determined as 101%.

Take `CCc1ccc(C(CC)(NC(=O)c2cnn3c2N[C@@H](c2ccccc2)CC3(C)C)C(=O)N[C@@H](CC(C)C)C(N)=O)cc1` (stereo partly drawn) [Example 16, (5R)-N-(1-(((2S)-1-Amino-4-methyl-1-oxopentan-2-yl)amino)-2-(4-ethylphenyl)-1-oxobutan-2-yl)-7,7-dimethyl-5-phenyl-4,5,6,7-tetrahydropyrazolo[1,5-a]pyrimidine-3-carboxamide]: the “Inhibition rate (%) at 3.3 μM” value was determined as 105%.
